One may read the IC50 as the concentration that inhibits the measured activity by half.

Common to all, as to assay type: cell-based, Human
For one test, the system named is HCT116 (p53+/+) cells. Description: In vitro cell proliferation assay (SRB assay) on HCT116 cells. As to conditions: for relative growth rate: 10 μM APTM, percentage of control. The method, then:
(§1) Human colon cancer cell line HCT116 (p53+/+) was purchased from ATCC and the p53−/− HCT116 cell line was provided by Bert Vogelstein, Johns Hopkins University. Cells were cultured in McCoy's 5A medium supplemented with 10% FBS, 100 units/ml penicillin G, and 100 μg/ml streptomycin in humidified atmosphere with 5% CO2. Cells were passaged twice weekly to maintain logarithmic growth.
(§2) The anti-proliferative effects of APTM on cancer cell lines were assessed by sulforhodamine B (SRB) colorimetric assay. Cells were seeded in 96-well plates at densities of 5,000 cells per well and cultured overnight. Then cells were susceptible to APTM at indicated concentrations and cultured for indicated times. After incubation, attached cells were fixed with 50 μL cold 50% (w/v) trichloroacetic acid (TCA) for 1 hour at 4° C., washed 5 times with slow-running tap water, and stained with 100 μL 0.4% (w/v) SRB. Optical density at 515 nm (OD515) was measured using a microplate reader (Molecular Devices) after mixing the protein-bound dye with 200 μL 10 mM Tris base solution (pH 10.5). The relative cell growth rate was determined with the following equation: Relative Growth (%)=OD (treated)/OD (control). The IC50 value was defined as the concentration required for a 50% reduction in cell growth.
Background: Sulforhodamine B stains cellular protein and so reports cell mass.

The test system of test [1] is HCT116 p53−/− cells. Description: In vitro cell proliferation assay (SRB assay) on HCT116 p53-/- cells. The method, then:
as §1, §2

In test [2] the test system is HCT116 cells. Description: Colony formation assay. Conditions: 8 days. The method, then:
HCT116 cells were plated at 3,000 cells/well in six-well plates and cultured with indicated concentrations of APTM for 8 days. Cells were stained with 0.2% (w/v) crystal violet in buffered formalin for 20 minutes, and colonies were then photographed and quantified as previously described.

Test [3] concerns HCT116 cells. Description: Analysis of cell cycle by flow cytometry (PI staining). Conditions: 48 hours. The procedure:
Cell cycle distribution was determined by staining DNA with propidium iodide (PI). Briefly, 1.0×10^6 cells were incubated with or without APTM for 48 hours. Cells were washed with cold PBS and fixed in 70% ethanol at −20° C. for 2 hours. After washing with PBS, cells were stained with cold PI solution (20 μg/ml PI and 200 μg/mI RNase in PBS) for 30 minutes at room temperature in the dark. The percentage of cells in different phases of the cell cycle was determined by flow cytometer (BD Bioscience) and analyzed using FlowJo software.

The test system of a further test is HCT116 p53+/+ cells. Kind of test: Analysis of apoptosis by flow cytometry (Annexin V-FITC/PI). As to conditions: 48 hours, control 2.53%. The procedure:
(§3) Annexin V-FITC/PI double staining method was employed for the apoptosis assay in HCT116 p53+/+ and HCT116 p53−/− cells (1×10^6/well, 6-well plate). After 48 hours of treatment with APTM, cells were harvested in 15 ml centrifuge tubes by gentle scraping followed by centrifugation at 300×g for 5 minutes at room temperature. Cell suspension was washed two times with cold PBS by centrifugation at 300×g for 5 minutes at room temperature. Then cells were harvested, washed twice with cold PBS, and resuspended in 1×binding buffer (100 μL). Cells were transferred into a 1.5 ml micro-centrifuge tubes and stained with propidium iodide (5 μL) and FITC annexin V (5 μL). Cells were briefly vortexed after incubation for 15 minutes in the dark at room temperature. Then cells were filtered and analyzed by flow cytometry. Total apoptotic cells (FITC to Annexin V positive) were counted.

The subject of test [4] is HCT116 p53−/− cells. Description: Analysis of apoptosis by flow cytometry (Annexin V-FITC/PI), p53-deficient cells. Conditions: 48 hours. The procedure: as §3
A general note: A flow cytometer gives signals particle by particle.

Test [5] concerns HCT116 cells. Kind of test: Assessment of cell morphological changes (Hoechst 33258 staining). Conditions: HCT116 cells, 3, 10 and 30 μM, 48 hours. The method, then: (§4) Cells were plated in 6-well plates (200,000 cells/well) and treated with indicated concentrations of APTM. After incubation for 48 hours, cells were collected, washed with PBS and stained with Hoechst 33258 ([…]) in buffered formalin solution containing 5.6% NP-40. Apoptotic and living cells were viewed through DAPI filter of fluorescence inverted microscope (Leica DM2500 Fluorescence Microscope) at 400× magnifications.

For test [6], the system named is HCT116 p53−/− cells. Description: Assessment of cell morphological changes (Hoechst 33258 staining), p53-deficient cells. As to conditions: highest concentration of 30 μM, 48 hours. The procedure:
as §4

Test [7] relates to p53/Bax/cPARP signaling axis in HCT116 cells. Description: Western blotting of apoptosis markers p53, Bax, cPARP. Conditions: 48 hours. The method, then:
(§5) HCT116 cells were treated with APTM at indicated concentrations for 48 hours, and harvested via trypsinization. Protein samples were prepared by scratching cells in RIPA buffer containing protease inhibitor cocktail (Roche) and diluted in SDS-PAGE protein sample buffer. Samples were heated for 5 minutes at 100° C. Protein concentrations were measured using Direct Detect® Infrared Spectrometer (Millipore, USA) according to the manufacturer's instructions. Equal amount of proteins were loaded on 4-20% SDS-polyacrylamide (PAGE) gel. After electrophoresis, gels were transferred to a PVDF membrane (Millipore) and incubated with primary antibodies overnight at 4° C. The membranes were then washed with TBST and incubated with horseradish peroxidase-conjugated anti-rabbit or anti-mouse antibodies (1:10000, Santa Cruz, Calif., USA) for 45 min at room temperature. Proteins were visualized with SuperSignal West Dura Extended Duration Substrate or SuperSignal West Pico Chemiluminescent Substrate (Thermo Scientific) using the Amersham Imager 600 western blotting system.

For test [8], the system named is Bax and cPARP expression in HCT116 p53−/− cells. Kind of test: Western blotting of apoptosis markers, p53-deficient cells. As to conditions: different APTM concentrations. The procedure: as §5

SMILES strings stand for the structures.

For `Cc1cccc(C)c1Nc1sc(C(=O)c2ccc(F)cc2)c(N)c1S(=O)(=O)c1ccccc1` [APTM, [3-Amino-5-[(2,6-dimethylphenyl)amino]-4-(phenylsulfonyl)-2-thienyl](4-fluorophenyl)methanone], the relative growth rate in the test on HCT116 (p53+/+) cells (24 hours) is on record as 76.36%; in the test on HCT116 (p53+/+) cells (72 hours), 24.57%. In addition, the IC50 in the test on HCT116 (p53+/+) cells (Homo sapiens, HCT-116, 48 hours, SRB assay, read-out: IC50 value (50% reduction in cell growth)) was 6.57 µM; in the test on HCT116 p53−/− cells [1] (Homo sapiens, HCT-116, HCT116 p53−/− cells, 33.3 μM highest concentration tested, read-out: IC50 value (50% reduction in cell growth)), over 33.3 µM. In addition, the “resistance of p53 deficient cells versus HCT116 p53+/+ cells (IC50 ratio)” value with HCT116 p53−/− cells [1] (HCT116 p53−/− vs HCT116 p53+/+) is listed as “more than 5 fold”. The Colony formation ability result in the test with HCT116 cells [2] (3.0 μM) was “significantly decreased”; with HCT116 cells [2] (10.0 μM), “almost vanished”. The “sub-G0/G1 fraction of cells” value with HCT116 cells [3] (concentration-dependent) is on record as “increased”. In the test on HCT116 cells [3] (different concentrations), the “proportions of cells in G0/G1, S and G2/M phases” value is on record as “almost unchanged”. The “percentage of apoptotic cells (annexin V positive)” value in the test on HCT116 p53+/+ cells (3 μM) was 7.67%; in the test on HCT116 p53+/+ cells (10 μM), 20.86%; with HCT116 p53+/+ cells (30 μM) it was 43.7%. Further, the “APTM induced apoptosis (annexin V-FITC/PI flow cytometry)” value in the test with HCT116 p53−/− cells [4] is “resistant”. In the test on HCT116 cells [5], the “apoptotic morphological changes (Hoechst staining)” value is reported as “typical morphological characteristics of apoptosis”. For the same molecule, the “nuclear staining / apoptotic morphological changes (Hoechst staining)” value in the test on HCT116 p53−/− cells [6] is given as “reserved normal nuclear staining”. The Bax level entry in [7] is on record as “induced”. For the same molecule, the “cleaved nuclear poly(ADP-ribose) polymerase (cPARP) level” value in [7] was “concentration-dependently induction”. Moreover, the p53 protein level result in test [7] is on record as “substantially induced”. Also, the “Bax and cPARP expression” value in [8] is listed as “blunted”.

Values taken from patent US20190183856A1, “METHODS FOR TREATING CANCER” (Macau University of Science and Technology, priority 2017, published 2019).
